A compilation of properties of binary mixtures (doi:10.1021/acs.jced.0c00740)

Assay: xn = mol fraction of the nth substance listed
Conditions: 101 kPa

C[NH+](C)C.O=S(=O)([N-]S(=O)(=O)C(F)(F)F)C(F)(F)F + N#CCCCC#N
x1 = 0.2167
Conditions | viscosity [mPa·s]
278 K | 23
283 K | 18.87
293 K | 13.35
303 K | 9.89
308 K | 8.64
313 K | 7.609
323 K | 6.028
328 K | 5.417
333 K | 4.899
338 K | 4.457
343 K | 4.07
348 K | 3.741

C[S+](C)C.O=S(=O)([N-]S(=O)(=O)C(F)(F)F)C(F)(F)F + N#CCCCC#N
x1 = 0.2085
Conditions | viscosity [mPa·s]
283 K | 18.02
288 K | 15.07
293 K | 12.76
298 K | 10.92
308 K | 8.25
313 K | 7.26
323 K | 5.744
343 K | 3.871
353 K | 3.283
